The results in this text go back to paper PMC6349167, “Inhibiting the urokinase‐type plasminogen activator receptor system recovers STZ‐induced diabetic nephropathy” (Journal of Cellular and Molecular Medicine, 2018).

For series [1] the following is noted: rat, in vivo, sc, 20 mg/kg.
Method: (§1) Four weeks after diabetes induction, three control or three STZ rats were used for the pharmacokinetics (PK) and the tissue distribution study. To this aim, rats received a single dose of UPARANT succinate dissolved in PBS (vehicle) at 20 mg/kg via subcutaneous injection according to a previous study.22 To investigate a possible therapeutic role of UPARANT, the drug was administered at 1 or 8 mg/kg daily for 5 days in 15 rats for each concentration used.
(§2) PK and UPARANT tissue distribution were as previously described.21 Briefly, for plasma PK, a volume of 0.2 mL blood was extracted at fixed time intervals (0.25, 0.5, 1, 2, 4, 6, 8, 12, 16 and 24 hours after dose) from the femoral vein. Blood was centrifuged (12 000 g for 20 minutes) and plasma was treated with 1% formic acid in methanol. Samples were stored at −80°C. The animals used for the PK study were killed at 24 hours. […] The concentration of UPARANT was evaluated via LC‐MS/MS.
(§3) A two phase model equation Ct = C0(e^-kelim^ t-e^-kabs^ t) with first order kinetics (absorption and elimination) was used to evaluate the kinetic parameters. Both C0 corresponding to the plasma concentration extrapolated at t=0 from the elimination phase and kelim and kabs, elimination and absorption kinetic parameters, were determined by best fit to the equation of the averaged time point concentrations. The terminal half-life t1/2 corresponding to 0.693/kelim and time tmax at the maximum plasma concentration Cmax were determined from the first derivative equal zero of the kinetic equation. The AUCinf, area under the concentration curve versus time from 0 to infinity was calculated by the integral of the kinetic equation.
The conditions of series [2]: male, Sprague-Dawley, rat, in vivo, sc, 20 mg/kg, 24 h.
Method: (§4) Four weeks after diabetes induction, three control or three STZ rats were used for the pharmacokinetics (PK) and the tissue distribution study. To this aim, rats received a single dose of UPARANT succinate dissolved in PBS (vehicle) at 20 mg/kg via subcutaneous injection according to a previous study.22 To investigate a possible therapeutic role of UPARANT, the drug was administered at 1 or 8 mg/kg daily for 5 days in 15 rats for each concentration used. […] Rats were killed with 65 mg/kg pentobarbital. Blood was collected in EDTA tubes to then isolate plasma by centrifugation and kidneys were removed.
(§5) PK and UPARANT tissue distribution were as previously described.21 Briefly, for plasma PK, a volume of 0.2 mL blood was extracted at fixed time intervals (0.25, 0.5, 1, 2, 4, 6, 8, 12, 16 and 24 hours after dose) from the femoral vein. Blood was centrifuged (12 000 g for 20 minutes) and plasma was treated with 1% formic acid in methanol. Samples were stored at −80°C. The animals used for the PK study were killed at 24 hours. Kidneys and livers were dissected and processed with 1% formic acid in methanol. The concentration of UPARANT was evaluated via LC‐MS/MS.
Series [3] in a line: in vivo. The conditions noted are these: male, Sprague-Dawley, rat, sc, 20 mg/kg.
Method: as §1, §2, §3
A short description of series [4]: in vivo. The conditions noted are these: male, Sprague-Dawley, rat, sc, 20 mg/kg. This is another data set of the same source.
Method: as §4, §5

Like-named read-outs stand apart in the source and are kept apart here. Non-standard residues stand in square brackets, D forms with d. Residues, ends and D or L forms follow the SMILES beside them. αMeF = C[C@](N)(Cc1ccccc1)C(=O)O; Aib = CC(C)(N)C(=O)O

A word on the Cmax: it is the highest concentration seen after dosing. As usually defined, the half-life is the time in which the quantity being followed falls by half. A lower half-life goes with fast loss. For orientation: AUC(0-inf) means total exposure, with the tail of the curve extrapolated. Higher therefore signals more exposure.

As for `CC(=O)N[C@@H](CCCNC(=N)N)C(=O)NC(C)(C)C(=O)N[C@@H](CCCNC(=N)N)C(=O)N[C@@](C)(Cc1ccccc1)C(N)=O` [UPARANT, Ac‐L‐Arg‐Aib‐L‐Arg‐L‐Cα(Me)PheNH2] (Ac-R[Aib]R[αMeF]-NH2), in series [1] (male, Sprague-Dawley), the AUCinf is 16100 ng·h/mL, the highest concentration (Cmax) was 2300 ng/mL and the tmax was 2.2 h. Besides, in series [1], the kabs is 0.6 ± 0.2 h⁻¹ and the t1/2 was determined as 2.2 h. Further, in series [2], the “concentration of UPARANT in the kidney” value turned out to be 28.2 ± 4.3 µg/g and the “concentration of UPARANT in the liver” value came out at 20.4 ± 7.5 µg/g. Also, the half-life in “in vivo [3]” is 2.2 h. In the series “in vivo [3]” (AUCinf), this compound displayed an area under the curve AUC(0-inf) of 15900 ng·h/mL. This compound also had a Cmax in the series “in vivo [3]” (Cmax) of 2600 ng/mL. Also, the tmax in “in vivo [3]” (tmax) came out at 2.3 h. For the same compound, the tissue level at time at 24 h in “in vivo [4]” (concentration of UPARANT in the kidney) amounted to 45900 ± 3600 ng/g. In “in vivo [4]” (concentration of UPARANT in the liver), the tissue level at time at 24 h is 21100 ± 2400 ng/g.
